# Test results reported in ChEMBL document CHEMBL1240308, “Elevated levels of oxidized cholesterol metabolites in Lewy body disease brains accelerate alpha-synuclein fibrilization” (Nat Chem Biol, 2006).
# The source made the active and inactive calls. No cut-off for these calls is given here.
# Experiments:
# [1] = molecular target: Alpha-synuclein (Homo sapiens) (UniProt P37840); assay: Induction of alpha-synuclein aggregation in PBS buffer assessed as fluorescence after 72 hrs by Thioflavin T fluorescence assay
# SH-SY5Y [2] = assay: Cytotoxicity against human SH-SY5Y cells overexpressing alpha-synuclein at 20 uM after 48 hrs by LDH assay; type: cell-based
# [3] = molecular target: Alpha-synuclein (Homo sapiens) (UniProt P37840); assay: Induction of alpha-synuclein aggregation in PBS buffer assessed as fluorescence after 48 hrs by Thioflavin T fluorescence assay
# [4] = molecular target: Alpha-synuclein (Homo sapiens) (UniProt P37840); assay: Induction of alpha-synuclein aggregation in PBS buffer assessed as fluorescence after 330 hrs by Thioflavin T fluorescence assay
# [5] = molecular target: Alpha-synuclein (Homo sapiens) (UniProt P37840); assay: Induction of alpha-synuclein aggregation in PBS buffer assessed as fluorescence after 96 hrs by Thioflavin T fluorescence assay
# [6] = molecular target: Alpha-synuclein (Homo sapiens) (UniProt P37840); assay: Induction of alpha-synuclein aggregation in PBS buffer assessed as transition of alpha-synuclein from natively unfolded monomer to cross-beta-sheet conformation after 48 hrs by CD spectroscopy
# [7] = molecular target: Alpha-synuclein (Homo sapiens) (UniProt P37840); assay: Induction of alpha-synuclein aggregation in PBS buffer assessed as transition of alpha-synuclein from natively unfolded monomer to cross-beta-sheet conformation after 72 hrs by CD spectroscopy
# [8] = molecular target: Alpha-synuclein (Homo sapiens) (UniProt P37840); assay: Induction of alpha-synuclein aggregation in PBS buffer assessed as transition of alpha-synuclein from natively unfolded monomer to cross-beta-sheet conformation after 96 hrs by CD spectroscopy
# [9] = molecular target: Alpha-synuclein (Homo sapiens) (UniProt P37840); assay: Induction of alpha-synuclein aggregation in PBS buffer assessed as alpha-synuclein monomer depletion after 72 hrs by size exclusion chromatography
# SH-SY5Y [10] = assay: Cytotoxicity against human SH-SY5Y cells overexpressing alpha-synuclein at 20 uM after 48 hrs by MTT assay; type: cell-based
# [11] = molecular target: Alpha-synuclein (Homo sapiens) (UniProt P37840); assay: Induction of alpha-synuclein aggregation in PBS buffer assessed as transition of alpha-synuclein from natively unfolded monomer to cross-beta-sheet conformation after 330 hrs by CD spectroscopy
# [12] = molecular target: Alpha-synuclein (Homo sapiens) (UniProt P37840); assay: Induction of alpha-synuclein aggregation in PBS buffer assessed as alpha-synuclein monomer depletion after 96 hrs by size exclusion chromatography
# [13] = molecular target: Alpha-synuclein (Homo sapiens) (UniProt P37840); assay: Induction of alpha-synuclein aggregation in PBS buffer assessed as alpha-synuclein monomer depletion after 48 hrs by size exclusion chromatography
# [14] = Cytotoxicity against human SH-SY5Y cells overexpressing alpha-synuclein after 48 hrs by MTT assay; type: cell-based; conditions: read-out: LD50
# [15] = molecular target: Alpha-synuclein (Homo sapiens) (UniProt P37840); assay: Induction of alpha-synuclein aggregation in PBS buffer assessed as formation of alpha-synuclein fibrils after 96 hrs by electron microscopy
# [16] = molecular target: Alpha-synuclein (Homo sapiens) (UniProt P37840); assay: Induction of alpha-synuclein aggregation in PBS buffer assessed as fluorescence after 44 to 305 hrs in presence of competitive Schiff-base inhibitor aminoguanidine by Thioflavin T fluorescence assay
# [17] = Cytotoxicity against human SH-SY5Y cells overexpressing alpha-synuclein after 48 hrs by LDH assay; type: cell-based; conditions: read-out: LD50
# [18] = molecular target: Alpha-synuclein (Homo sapiens) (UniProt P37840); assay: Induction of alpha-synuclein aggregation in PBS buffer assessed as formation of alpha-synuclein fibrils after 48 hrs by electron microscopy
SMILES,Activity [1] [a.u.],Activity (SH-SY5Y [2]),Activity [3] [a.u.],Activity [4] [a.u.],Activity [5] [a.u.],Activity [6] [%],Activity [7] [%],Activity [8] [%],Activity [9] [%],Activity (SH-SY5Y [10]),Activity [11] [%],Activity [12] [%],Activity [13] [%],CC50 at 48 h [14] [µM],Activity [15],Activity [16],CC50 at 48 h [17] [µM],Activity [18]
CC(C)CCC[C@@H](C)[C@H]1CC[C@H]2[C@@H]3CC=C4C[C@@H](O)CC[C@]4(C)[C@H]3CC[C@]12C [CHOLESTEROL],25,Non-toxic,0,120,30,0,4,4,19,Non-toxic,100,70,2,–,–,–,–,–
CC(C)CCC[C@@H](C)[C@H]1CC[C@H]2[C@H](CC(=O)O)[C@@H]([C@@]3(C)CC[C@H](O)CC3=O)CC[C@]12C,330,–,220,500,410,40,–,60,–,–,100,70,50,55,Active,Active,55,Active
